T1: EG I' from Fusarium oxysporum (Figure 4) (Fusarium oxysporum, UniProt P46237)
T1 sequence (P46237 19-429): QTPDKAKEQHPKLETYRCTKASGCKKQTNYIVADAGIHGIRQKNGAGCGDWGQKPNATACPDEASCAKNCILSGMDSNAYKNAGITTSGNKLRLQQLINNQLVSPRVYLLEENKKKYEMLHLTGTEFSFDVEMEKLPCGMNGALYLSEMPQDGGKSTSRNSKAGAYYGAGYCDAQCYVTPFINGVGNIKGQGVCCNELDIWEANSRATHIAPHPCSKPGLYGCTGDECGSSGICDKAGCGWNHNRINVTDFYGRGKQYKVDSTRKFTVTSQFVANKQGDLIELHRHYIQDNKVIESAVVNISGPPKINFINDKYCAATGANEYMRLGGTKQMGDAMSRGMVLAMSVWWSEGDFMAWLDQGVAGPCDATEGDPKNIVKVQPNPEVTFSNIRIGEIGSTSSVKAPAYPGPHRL


Tests used:
[1] = target: T1, EG I' from Fusarium oxysporum (Figure 4); experiment: Cellulase activity on cellotriose (coupled glucose oxidase/peroxidase/ABTS assay); conditions: pH 8,5 and 40°C; calculated from a Lineweaver-Burk plot
[2] = substrate: OC[C@H]1O[C@@H](O[C@H]2[C@H](O)[C@@H](O)[C@H](O[C@H]3[C@H](O)[C@@H](O)C(O)O[C@@H]3CO)O[C@@H]2CO)[C@H](O)[C@@H](O)[C@@H]1O; experiment: purified protein, by the assay type; conditions: other: substrate cellotriose, pH 8,5 and 40°C, calculated from a Lineweaver-Burk plot, pH 8.5

catalytic activity on cellotriose (Kcat) [1]	Molecule	Km [2] [µM]
5,5 pr. sec	OC[C@H]1O[C@@H](O[C@H]2[C@H](O)[C@@H](O)[C@H](O[C@H]3[C@H](O)[C@@H](O)C(O)O[C@@H]3CO)O[C@@H]2CO)[C@H](O)[C@@H](O)[C@@H]1O (some centres unmarked) [cellotriose]	–
–	EG I' from Fusarium oxysporum (Figure 4) (Fusarium oxysporum) (protein) QTPDKAKEQHPKLETYRCTKASGCKKQTNYIVADAGIHGIRQKNGAGCGDWGQKPNATACPDEASCAKNCILSGMDSNAYKNAGITTSGNKLRLQQLINNQLVSPRVYLLEENKKKYEMLHLTGTEFSFDVEMEKLPCGMNGALYLSEMPQDGGKSTSRNSKAGAYYGAGYCDAQCYVTPFINGVGNIKGQGVCCNELDIWEANSRATHIAPHPCSKPGLYGCTGDECGSSGICDKAGCGWNHNRINVTDFYGRGKQYKVDSTRKFTVTSQFVANKQGDLIELHRHYIQDNKVIESAVVNISGPPKINFINDKYCAATGANEYMRLGGTKQMGDAMSRGMVLAMSVWWSEGDFMAWLDQGVAGPCDATEGDPKNIVKVQPNPEVTFSNIRIGEIGSTSSVKAPAYPGPHRL	500

Reference: patent EP1632557B1, “Novel alkaline cellulases” (Novozymes A/S, priority 1994, dated 1995)
